Assay results taken from PubChem BioAssay AID2060489 (Molecular Pharmacology Branch, DTP, NCI, 2025).
Several values for one entry are separate records, joined by “and”; a condition that tells them apart may be missing. Equal values may be shown once.

System: 922993-354-T-J3-PDC complex spheroids, viability
Test: Anticancer human tumor 922993-354-T-J3-PDC patient-derived endometrial carcinoma cell line growth inhibition [GQUAD]
Settings: for viability, T/C: stronger effect = lower value
Excerpt: DNA G-quadruplex Stabilizer Agents in Combinations in Complex Spheroids
A high-throughput screen of multi-cell type tumor spheroids was designed to identify active combinations of DNA G-quadruplex stabilizer agents and targeted small molecules. Complex spheroids include a stromal component modeled by human endothelial cells (HUVEC) and fibroblasts modeled by human mesenchymal stem cells (MSCs). The concentration ranges selected for each drug and investigational agent were based upon clinically achievable concentrations if the clinical Cmax of the agent was known.
Compounds. The drugs and investigational agents: pidnarulex (CX-5461; NSC782164), APTO-253 (NSC789042), BRACO-19 (NSC847499), peposertib (NSC802822), ceralasertib (NSC780249), elimusertib (NSC800525), camonsertib (NSC841442), AZD-1390 (NSC803789), olaparib (NSC753686), talazoparib (NSC767125), ART-558 (NSC835418), sotorasib (NSC818433), MRTX-1133 (NSC836407), SN-38 (NSC673596), topotecan (NSC609699), etoposide (NSC141540), doxorubicin (NSC123127), gemcitabine (NSC613327), 5-fluorouracil (NSC19893), paclitaxel (NSC125973), vemurafenib (NSC761431), panobinostat (NSC761190), R-306465 (JNJ-16241199; NSC773264), adavosertib (NSC754352), TP-3654 (NSC805149), carboplatin (NSC241240), KSQ-4279 (NSC840948), and staurosporine (NSC755774) were obtained from the National Cancer Institute (NCI) Developmental Therapeutics Program Chemical Repository (34). The FDA-approved anticancer drug set is available from the NCI Developmental Therapeutics Program. […] The stock solutions were prepared in dimethyl sulfoxide (DMSO, Sigma-Aldrich, St. Louis, MO, cat. D2650) at 800-fold the tested concentration and stored at -70 degrees C prior to their use. All drugs and investigational agents were tested over a range starting from a high concentration at or near the clinical Cmax and decreasing in half-log increments. If the clinical Cmax for an agent had not been determined, the highest concentration tested was 10 microM.
2.3 Cell Culture. All cells were maintained in an incubator at 37 degrees C and 5% CO2 with 95% humidity. The PDC lines were cultured according to standard operating procedures established by the NCI PDMR. All PDCs were thawed and cultured in Matrigel-coated flasks prepared with a working solution of 1X Ham's F-12 nutrient mix, without supplementation (Invitrogen, cat. 11765054), 100 U/mL penicillin-streptomycin (Invitrogen, cat. 15140122), and 2.5% Matrigel (Corning Inc., cat. 354248) for the first three passages. The 857933-349-R-J2-PDC line was cultured in 6C/Colon 1B media, which includes advanced DMEM/F-12 (Thermo Fisher Scientific, cat. 12634028), 10 mM HEPES (Thermo Fisher Scientific, cat. 15630080), 1X GlutaMAX supplement (Thermo Fisher Scientific, cat. 35050061), 0.1 mg/mL primocin (InvivoGen, cat. ant-pm-2), 10% defined fetal bovine serum, heat inactivated (HyClone Laboratories Inc., cat. SH30070.03HI), 50% L-WRN conditioned media (ATCC, cat. CRL-3276), 1.25 mM N-Acetyl-L-cysteine (Sigma-Aldrich, cat. A9165), 10 mM nicotinamide (Sigma-Aldrich, cat. N0636), 1X B-27 supplement (Thermo Fisher Scientific, cat. 17504044), 1X N-2 supplement (Thermo Fisher Scientific, cat. 17502048), 10 microM Y-27632 dihydrochloride (Tocris Bioscience, cat. 1254), and 50 ng/mL human EGF recombinant protein (Thermo Fisher Scientific, cat. PHG0311). The 485176-168-R4-J1-PDC line was cultured in Panc media, which includes all 6C/Colon 1B media components plus 100 ng/mL human FGF-10 (Thermo Fisher Scientific, cat. 100-26), 500 nM SB-431542 (Selleckchem, cat. S1067), and gastrin (Tocris, cat. 3006).
[…]
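Also: spheroids exposed to compounds for seven days.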
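For viability, T/C in this document: 100% = DMSO vehicle control viability.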

O=C(c1cc(Cc2n[nH]c(=O)c3ccccc23)ccc1F)N1CCN(C(=O)C2CC2)CC1
viability, T/C (compound 0.0316 µM): 86.5% and 123% and 91.1%
viability, T/C (compound 0.1 µM): 93% and 92.2% and 94.4%
viability, T/C (compound 0.316 µM): 102% and 98.1% and 105%
viability, T/C (compound 1 µM): 86.7% and 85.6% and 86.3%
viability, T/C (compound 3.16 µM): 88.2% and 92.5% and 92.1%
viability, T/C (compound 10 µM): 99.3% and 77.2% and 85.4%
IC50 (curve of compound): > 10000 nM

CC[C@@]1(O)C(=O)OCc2c1cc1n(c2=O)Cc2cc3c(CN(C)C)c(O)ccc3nc2-1
viability, T/C (compound 0.000999 µM): 111% and 105% and 82.9%
viability, T/C (compound 0.00316 µM): 80.6% and 108% and 97.9%
viability, T/C (compound 0.00999 µM): 113% and 76.5% and 112%
viability, T/C (compound 0.0316 µM): 85.2% and 98.8% and 103%
viability, T/C (compound 0.0999 µM): 71% and 84.4% and 94.9%
viability, T/C (compound 0.316 µM): 48.6% and 38.9% and 38.2%
IC50 (curve of compound): 298 nM and 241 nM and 249 nM

O=C(NO)c1cnc(N2CCN(S(=O)(=O)c3ccc4ccccc4c3)CC2)nc1
viability, T/C (compound 0.0316 µM): 98.1% and 88.5% and 95.5%
viability, T/C (compound 0.1 µM): 71.3% and 68.2% and 82.4%
viability, T/C (compound 0.316 µM): 56% and 62% and 55.4%
viability, T/C (compound 1 µM): 36.7% and 32.2% and 32%
viability, T/C (compound 3.16 µM): 3.07% and 3.39% and 4.12%
viability, T/C (compound 10 µM): 0.53% (2×) and 0.58%
IC50 (curve of compound): 381 nM and 447 nM and 422 nM

CC1COCCN1c1cc(-c2ccnn2C)c2ccnc(-c3ccn[nH]3)c2n1 (stereo not drawn)
viability, T/C (compound 0.0316 µM): 83.5% and 95% and 87.4%
viability, T/C (compound 0.1 µM): 71.5% and 63.7% and 70.4%
viability, T/C (compound 0.316 µM): 48.3% and 41.6% and 62.9%
viability, T/C (compound 1 µM): 22.1% and 12.8% and 28.7%
viability, T/C (compound 3.16 µM): 19.6% and 22% and 23.4%
viability, T/C (compound 10 µM): 16.8% and 19.2% and 17.7%
IC50 (curve of compound): 273 nM and 184 nM and 451 nM

C#Cc1c(F)ccc2cc(O)cc(-c3ncc4c(N5CC6CCC(C5)N6)nc(OCC56CCCN5CC(F)C6)nc4c3F)c12 (stereo not drawn)
viability, T/C (compound 0.0316 µM): 84.5% and 92.3% and 99.3%
viability, T/C (compound 0.1 µM): 82.8% and 84% and 92.6%
viability, T/C (compound 0.316 µM): 89.6% and 103% and 84.7%
viability, T/C (compound 1 µM): 92.7% and 82.5% and 106%
viability, T/C (compound 3.16 µM): 76.5% and 96.3% and 94.4%
viability, T/C (compound 10 µM): 96.1% and 82.3% and 91.5%
IC50 (curve of compound): > 10000 nM

C=CC(=O)N1CCN(c2nc(=O)n(-c3c(C)ccnc3C(C)C)c3nc(-c4c(O)cccc4F)c(F)cc23)C(C)C1 (stereo not drawn)
viability, T/C (compound 0.0316 µM): 101% and 110% and 99.2%
viability, T/C (compound 0.1 µM): 88.4% and 88.3% and 112%
viability, T/C (compound 0.316 µM): 102% and 124% and 99.9%
viability, T/C (compound 1 µM): 91.4% and 97.3% and 95.3%
viability, T/C (compound 3.16 µM): 93.3% and 95.4% and 128%
viability, T/C (compound 10 µM): 97.9% and 97.8% and 89.3%
IC50 (curve of compound): > 10000 nM

O=C(NO)c1cnc(N2CCN(S(=O)(=O)c3ccc4ccccc4c3)CC2)nc1 + CN(C)c1ccc(Nc2c3ccc(NC(=O)CCN4CCCC4)cc3nc3cc(NC(=O)CCN4CCCC4)ccc23)cc1
IC50 (curve of first compound, second compound 0.0316 µM): 390 nM
IC50 (curve of first compound, second compound 0.1 µM): 475 nM
IC50 (curve of first compound, second compound 0.316 µM): 442 nM
IC50 (curve of first compound, second compound 1 µM): 448 nM
IC50 (curve of first compound, second compound 3.16 µM): 682 nM
IC50 (curve of first compound, second compound 10 µM): 689 nM
viability, T/C (second compound 0.0316 µM, first compound 0.0316 µM): 107%
viability, T/C (second compound 0.0316 µM, first compound 0.1 µM): 79.2%
viability, T/C (second compound 0.0316 µM, first compound 0.316 µM): 50%
viability, T/C (second compound 0.0316 µM, first compound 1 µM): 41.5%
viability, T/C (second compound 0.0316 µM, first compound 3.16 µM): 4.18%
viability, T/C (second compound 0.0316 µM, first compound 10 µM): 0.41%
viability, T/C (second compound 0.1 µM, first compound 0.0316 µM): 79.9%
viability, T/C (second compound 0.1 µM, first compound 0.1 µM): 96.1%
viability, T/C (second compound 0.1 µM, first compound 0.316 µM): 56.6%
viability, T/C (second compound 0.1 µM, first compound 1 µM): 29.6%
viability, T/C (second compound 0.1 µM, first compound 3.16 µM): 4.22%
viability, T/C (second compound 0.1 µM, first compound 10 µM): 0.4%
viability, T/C (second compound 0.316 µM, first compound 0.0316 µM): 96.5%
viability, T/C (second compound 0.316 µM, first compound 0.1 µM): 75%
viability, T/C (second compound 0.316 µM, first compound 0.316 µM): 60.8%
viability, T/C (second compound 0.316 µM, first compound 1 µM): 33.4%
viability, T/C (second compound 0.316 µM, first compound 3.16 µM): 4.98%
viability, T/C (second compound 0.316 µM, first compound 10 µM): 0.4%
viability, T/C (second compound 1 µM, first compound 0.0316 µM): 76.7%
viability, T/C (second compound 1 µM, first compound 0.1 µM): 76.6%
viability, T/C (second compound 1 µM, first compound 0.316 µM): 54.5%
viability, T/C (second compound 1 µM, first compound 1 µM): 34.5%
viability, T/C (second compound 1 µM, first compound 3.16 µM): 3.3%
viability, T/C (second compound 1 µM, first compound 10 µM): 0.44%
viability, T/C (second compound 3.16 µM, first compound 0.0316 µM): 88.3%
viability, T/C (second compound 3.16 µM, first compound 0.1 µM): 95.7%
viability, T/C (second compound 3.16 µM, first compound 0.316 µM): 80.9%
viability, T/C (second compound 3.16 µM, first compound 1 µM): 34.3%
viability, T/C (second compound 3.16 µM, first compound 3.16 µM): 4.89%
viability, T/C (second compound 3.16 µM, first compound 10 µM): 0.4%
viability, T/C (second compound 10 µM, first compound 0.0316 µM): 101%
viability, T/C (second compound 10 µM, first compound 0.1 µM): 85.6%
viability, T/C (second compound 10 µM, first compound 0.316 µM): 95.3%
viability, T/C (second compound 10 µM, first compound 1 µM): 29%
viability, T/C (second compound 10 µM, first compound 3.16 µM): 5.63%
viability, T/C (second compound 10 µM, first compound 10 µM): 0.55%

CN(C)c1ccc(Nc2c3ccc(NC(=O)CCN4CCCC4)cc3nc3cc(NC(=O)CCN4CCCC4)ccc23)cc1
viability, T/C (compound 0.316 µM): 99.4% [middle of 12 runs]
IC50 (compound alone, run of 03/26/2024): > 10000 nM

Cn1ncnc1[C@H]1c2n[nH]c(=O)c3cc(F)cc(c23)N[C@@H]1c1ccc(F)cc1
viability, T/C (compound 0.000999 µM): 93.3% and 98.8% and 108%
viability, T/C (compound 0.00316 µM): 101% and 78.7% and 113%
viability, T/C (compound 0.00999 µM): 76.9% and 101% and 85.8%
viability, T/C (compound 0.0316 µM): 87.9% and 74.9% and 91.4%
viability, T/C (compound 0.0999 µM): 68.9% and 72% and 78.9%
viability, T/C (compound 0.316 µM): 54.5% and 62% and 59.1%
IC50 (curve of compound): > 316 nM
